Laboratory results reported in patent US7939554B2, “Protein phosphatase inhibitors” (The Cleveland Clinic Foundation, priority 2006, dated 2011).

Assays:
[1] = tested on: mouse splenocytes; test: induction of IFNγ+ cells in mouse splenocytes in vitro (ELISPOT); type: cell-based; settings: 1 μg/ml; FIG. 11
Experimental: The splenocytes were cultured in RPMI 1640 medium supplemented with 10% FCS in the absence or presence of designated agents for 16 hrs in flat-bottom 96-well plates coated with a monoclonal antibody specific for mouse IFNγ (mouse IFNγ ELISPOT Kit, R & D System). The plates were then processed for in situ detection of IFNγ+ cells by ELISA following the manufacturer's procedure. Scanning and counting of IFNγ+ cells in the plates were accomplished using an automatic ELISPOT reader with Immunospot2 software (Cellular Technology Ltd). Mouse splenocytes were also untreated or treated with agents for 16 hrs in culture dishes and then stained with appropriate isotype control antibodies or FICT-labeled anti-CD3 monoclonal antibody (BD) plus PE-labeled monoclonal antibody (BD) for intracellular IFNγ following established procedures. The stained samples were washed 3 times, re-suspended in 200 μl of 1% para-formaldehyde solution and analyzed (20,000 cells/sample) using a BD FACS Caliburs cytometer and WinList software.
The splenocytes were cultured in RPMI 1640 medium supplemented with 10% FCS in the absence or presence of designated agents for 16 hrs in flat-bottom 96-well plates coated with a monoclonal antibody specific for mouse IFNγ (mouse IFNγ ELISPOT Kit, R & D System). The plates were then processed for in situ detection of IFNγ+ cells by ELISA following the manufacturer's procedure. Scanning and counting of IFNγ+ cells in the plates were accomplished using an automatic ELISPOT reader with Immunospot2 software (Cellular Technology Ltd).

[2] = tested on: CD3+ and CD3- IFNγ+ splenocytes; test: spleno-IFNγ+ cells in B16 tumor mice (CD3/intracellular IFNγ FACS); type: in vivo, mouse; settings: 1 mg/kg oral, day 22
Experimental: Splenocytes from mice untreated or treated with L5a2 were stained with appropriate isotype control antibodies or FICT-labeled anti-CD3 monoclonal antibody (BD) plus PE-labeled monoclonal antibody (BD) for intracellular IFNγ following established procedures. The stained samples were washed 3 times, re-suspended in 200 μl of 1% para-formaldehyde solution and analyzed (20,000 cells/sample) using a BD FACS Caliburs cytometer and FlowJoe software.
To gain further insights into the mechanism of action in L5a2 in vivo, spleens were harvested from the B16 tumor mice in the control and the L5a2-treated groups (FIG. 13A) on day 22 to assess whether L5a2 induced IFNγ+ cells in the tumor-bearing mice. It was also determined whether the induced-IFNγ+ cells were of CD3+ T lymphocytes, which were activated TH1 critical for anti-tumor immunity. Splenocytes were prepared and co-stained for intracellular IFNγ and the T cell surface marker CD3 for quantification of IFNγ+ T cells by flow cytometry.

[3] = tested on: B16 melanoma tumors
Experimental: Tumor volume (n=5) was measured during the study period and calculated using the formula for a prolate spheroid. Student's t test was used for assessing the significance of tumor volume differences among differential treatment groups. Mouse viability (daily) and body weights (weekly) were also recorded during the study period. Major internal organs of the mice were inspected visually upon their termination at the end of the experiment.
To assess anti-tumor activity, C57BL/6J mice (˜8-week old, female, Taconic Farms, Germantown, N.Y.) were inoculated (s. c.) at the flanks with B16 melanoma cells (4×10^4 cells/site). […] Tumor volume (n=5) was measured during the study period and calculated using the formula for a prolate spheroid. Student's t test was used for assessing the significance of tumor volume differences among differential treatment groups. Mouse viability (daily) and body weights (weekly) were also recorded during the study period. Major internal organs of the mice were inspected visually upon their termination at the end of the experiment.

[4] = tested on: B16 melanoma cells; test: B16 melanoma cell growth in culture (MTT assay); type: cell-based, mouse; settings: 6 days; FIG. 13C
Experimental: Data represent mean±SD of triplicate samples. […] Tumor volumes were recorded as indicated. C, Athymic nude mice bearing 4-day-established B16 tumors were subjected to differential treatments as in B. Tumor volumes were recorded as indicated.
L5, L6 and L6 analogs (Chembridge), mouse IFNγ ELISPOT Kit (R & D System) and antibody against pLck-pY394 or pERK1/2 (Cell Signaling) were purchased from commercial sources. Human Jurkat T cell line and murine B16 melanoma cell line (ATCC) and other cancer cell lines were maintained in […] culture medium supplemented with 10% fetal calf serum (FCS). The effects of chemical compounds on cancer cell growth in culture were quantified by MTT assays following our established procedures.

[5] = molecular target: T1, recombinant SHP-1 (Homo sapiens, UniProt P29350); test: rapid in vitro SHP-1 PTPase assay (DIFMUP fluorescence substrate); type: biochemical; settings: for inhibition of phosphatase activity of recombinant SHP-1: L5 and analogs, 1 μg/well, FIG. 12A
T1 construct: Recombinant protein of SHP-1 PTPase catalytic domain was described
T1 sequence (P29350 244-515 limits assumed): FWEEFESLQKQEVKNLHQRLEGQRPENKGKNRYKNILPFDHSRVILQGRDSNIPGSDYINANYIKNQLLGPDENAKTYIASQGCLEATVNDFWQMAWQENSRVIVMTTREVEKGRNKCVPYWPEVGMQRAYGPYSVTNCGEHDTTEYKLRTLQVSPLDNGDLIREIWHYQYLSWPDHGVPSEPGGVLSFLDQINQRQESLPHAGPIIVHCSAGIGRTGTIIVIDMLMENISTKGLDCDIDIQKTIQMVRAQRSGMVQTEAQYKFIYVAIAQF
Experimental: Recombinant protein of SHP-1 PTPase catalytic domain was described and stored in Tris buffer (25 mM Tris, pH7.5, 1 mM EDTA, 2 μM 2-ME, 25% glycerol) at −80° C. Fluorescence substrate DIFMUP (6,8-difluoro-4 methylumbelliferyl phosphate) was purchased (Molecular Probes). SSG was reported previously (21-23) and stored at 4° C. in darkness prior to use. Human and mouse IFNγ ELISPOT Kit (R & D System), CD4^+ Cell Intracellular IFNγ Detection Kit (BD Bioscience) and CD8^+ Cell Intracellular IFNγ Detection Kit (BD Bioscience) were purchased from commercial sources. Human Jurkat T cell line (26) and murine B16 melanoma cell line (ATCC) were maintained in […] culture medium supplemented with 10% fetal calf serum (FCS). Antibodies against pLck-pY394 (Cell Signaling), pLck-pY505 (Cell Signaling), pZap70 (pY319, BD Biosciences), pSlp76 (pY128, BD Biosciences) and pLat (pY226, BD Biosciences) were purchased from commercial sources.
A rapid SHP-1 PTPase assay was developed for screening the compounds in a commercial library of 34,000 drug-like small chemicals (Chembridge, Mass.). Briefly, compounds of the library (1 μg/well in […]) were placed in 96-well plates (Falcon, 353072) and mixed with recombinant SHP-1 protein (0.1 μg/well) in […] of HEPES buffer (50 mM HEPS, pH 7.5, 150 mM NaCl, 1 mM EDTA, 0.2 mM DTT and 0.1 mg/ml BSA). The plates were incubated at room temperature for 10 minutes prior to the addition of fluorescence substrate DIFMUP (40 μM stock in HEPES buffer, 10 μl/well) to initiate PTPase reaction. Upon completion of PTPase reaction at room temperature for 1 hr in darkness, fluorescence signal of individual wells were recorded using a Vector^2 Multilabel Counter (Vector, CA). They were compared to that of control SHP-1 PTPase reaction (˜10,000 units of fluorescence signal) in the absence of any compound (100%) for calculating relative SHP-1 inhibition induced by the compounds after subtracting the background signal (˜500 units of fluorescence signal) of the substrate.
To evaluate their SHP-1 inhibitory activity, the analogs (1 μg/well in 0.2 μl DMSO) were aliquot individually to 96-well plates (Falcon, 353072) and mixed with recombinant SHP-1 protein (0.1 μg/well) in 90 μl of HEPES buffer (50 mM HEPS, pH 7.5, 150 mM NaCl, 1 mM EDTA, 0.2 mM DTT and 0.1 mg/ml BSA). The plates were incubated at room temperature for 10 minutes prior to the addition of fluorescence substrate DIFMUP (40 μM stock in HEPES buffer, 10 μl/well) to initiate PTPase reaction. Upon completion of PTPase reaction at room temperature for 1 hr in darkness, fluorescence signal of individual wells were recorded using a Vector^2 Multilabel Counter (Vector, CA). […]

[6] = molecular target: T2, SHP-2 (Homo sapiens, UniProt Q06124); test: SHP-2 inhibition by SSG (applicant's earlier studies); settings: recombinant and intracellular SHP-2
T2 sequence (Q06124 1-593): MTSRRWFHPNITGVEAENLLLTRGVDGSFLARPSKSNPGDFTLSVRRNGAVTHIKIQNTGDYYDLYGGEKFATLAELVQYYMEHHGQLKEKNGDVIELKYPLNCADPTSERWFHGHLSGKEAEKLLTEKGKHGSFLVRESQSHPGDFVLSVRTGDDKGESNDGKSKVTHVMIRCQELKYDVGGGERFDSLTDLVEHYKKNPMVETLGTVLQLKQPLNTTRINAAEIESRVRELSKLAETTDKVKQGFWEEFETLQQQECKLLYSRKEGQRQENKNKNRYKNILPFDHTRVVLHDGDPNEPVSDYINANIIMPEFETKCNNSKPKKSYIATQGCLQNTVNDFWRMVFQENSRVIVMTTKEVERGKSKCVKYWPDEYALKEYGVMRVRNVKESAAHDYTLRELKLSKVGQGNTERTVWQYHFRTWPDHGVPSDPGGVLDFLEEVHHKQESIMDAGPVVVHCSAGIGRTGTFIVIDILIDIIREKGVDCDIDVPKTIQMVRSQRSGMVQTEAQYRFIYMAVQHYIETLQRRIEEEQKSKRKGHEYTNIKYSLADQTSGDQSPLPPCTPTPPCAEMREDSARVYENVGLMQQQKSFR

[7] = molecular target: T3, intracellular SHP-1 (Homo sapiens, UniProt P29350); test: tyrosine phosphorylation of SHP-1 substrates in Jurkat cells (SDS-PAGE/Western blotting, densitometry); type: cell-based
T3 construct: endogenous in cells; host or cells: Jurkat
T3 sequence (P29350 whole entry): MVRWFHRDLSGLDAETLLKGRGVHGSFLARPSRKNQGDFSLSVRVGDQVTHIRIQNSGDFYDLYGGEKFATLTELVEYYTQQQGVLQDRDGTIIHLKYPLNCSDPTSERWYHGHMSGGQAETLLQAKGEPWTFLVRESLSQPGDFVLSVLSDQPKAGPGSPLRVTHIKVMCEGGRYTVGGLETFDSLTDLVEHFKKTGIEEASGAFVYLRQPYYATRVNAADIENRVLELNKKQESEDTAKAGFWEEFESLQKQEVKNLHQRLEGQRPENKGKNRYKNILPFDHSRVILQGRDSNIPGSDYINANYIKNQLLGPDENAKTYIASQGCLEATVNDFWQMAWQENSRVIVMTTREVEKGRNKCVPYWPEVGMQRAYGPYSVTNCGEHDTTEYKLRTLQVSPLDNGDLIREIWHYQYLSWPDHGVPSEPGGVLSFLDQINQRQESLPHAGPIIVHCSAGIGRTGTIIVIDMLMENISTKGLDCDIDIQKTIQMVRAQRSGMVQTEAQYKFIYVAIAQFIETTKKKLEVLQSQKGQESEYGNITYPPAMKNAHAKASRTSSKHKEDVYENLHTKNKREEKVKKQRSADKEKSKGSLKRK
Experimental: (§1) Jurkat cells in culture medium (3×10^6 cells/ml, 1 ml/tube) were treated with agents for designated times at room temperature. After brief centrifuging in a microfuge (4,000 rpm, 2 min), the cell pellet was lysed on ice for 30 min in 1001 of cold lysis buffer (1% NP40, 50 mM Tris, pH 7.4, 150 mM NaCl, 20 mM NaF, 0.2 mM Na3VO4 and 1 mM Na3MO4) containing a cocktail of proteinase inhibitors (Sigma, 1 tablet/10 ml). The lysates were cleared by centrifuging (14,000 rpm, 10 min) in a microfuge at 4° C. to remove insoluble parts, mixed with equal volume of 2×SDS-PAGE sample buffer, boiled for 5 min and analyzed (˜3×10^5 cells/well) by SDS-PAGE/Western blotting. Relative intensities of phosphotyrosine bands were quantified through densitometry analysis.
as §1, with “100 μl” for “1001”, “blotting as described previously (23, 24).” for “blotting.”
as §1, with “100 μl” for “1001”, “blotting as described previously (17, 18).” for “blotting.”

Question: How did the “induction of IFNγ+ cells” value [1] turn out when O=C1C=CC(=O)C(c2cccc(Cl)c2)=C1 [L5a2] was run?
Answer: ~20 fold

Question: What about the “increase of CD3+ IFNγ+ cells” value [2] of the same molecule?
Answer: ~4.5 fold

Question: What about the “increase of CD3- IFNγ+ cells” value [2] of the same molecule?
Answer: 1.3 fold

Question: And the “B16 tumor growth inhibition versus control” value ([3]; 1 mg/kg/daily, M-F/wk, oral, day 22)?
Answer: ~75%

Question: And the “tolerance of treated tumor mice (behavior, gross anatomy)” value ([3]; mouse, in vivo)?
Answer: no apparent abnormality

Question: What about the “inhibition of B16 melanoma cells in culture” value [4] of the same molecule?
Answer: failed to inhibit

Question: And the “inhibition of phosphatase activity of recombinant SHP-1” value [5]?
Answer: completely or almost completely inhibited

Question: For O=C1C=C(c2ccccc2)C(=O)c2ccccc21 [L5a3], which “inhibition of phosphatase activity of recombinant SHP-1” value [5] is on record?
Answer: ~80%

Question: For O.O.O.O.O.O.O.O.O.O=C([O-])[C@@H]1[O][Sb]2([O-])([O][Sb]34([OH])[O][C@H]([C@H](O)CO)[C@H]([O]3)[C@H](C(=O)[O-])[O]4)[O][C@H]([C@H](O)CO)[C@@H]1[O]2.[Na+].[Na+].[Na+] [SSG, Sodium Stibogluconate, reference compound], which “level at which SHP-2 is inhibited” value [6] is on record?
Answer: 10 µg/mL

Question: And the pLck-pY394 induction ([7]; 10 μg/ml, 10 min)?
Answer: ~2 fold

Question: And the “dose effective in inducing pLck-pY394 (lowest / only effective dose)” value ([7]; 10 min treatment)?
Answer: 10 μg/ml

Question: And the “level active against intracellular SHP-1” value ([7]; Jurkat T cells, molar equivalent)?
Answer: ~14 µM

Question: And the pLck-pY394 induction ([7]; lower (1 μg/ml) or higher (100 μg/ml) doses)?
Answer: failed

Question: And the “level at which SHP-1 is inhibited” value ([5]; recombinant and intracellular SHP-1)?
Answer: 10 µg/mL
